These are literature values, as cited in patent US9006451B1, “2-anilinonicotinyl based chalcones useful as potential anticancer agents and process for preparation thereof” (Council of Scientific and Industrial Research, priority 2013, dated 2015).

This data set concerns breast cancer cell line MCF7. Particulars: cited from earlier work.

On to `COc1ccc(C(=O)/C=C/c2c(OC)cccc2OC)c(OC)c1` [B, (E)-1-(2,4-dimethoxyphenyl)-3-(2,6-dimethoxyphenyl)prop-2-en-1-one], for which, under “J. Med. Chem. 2008, 51, 2307-2310, read-out: IC50 against breast cancer cell line MCF7”, the IC50 is 75 µM. Besides, the GI50 (known chalcone, literature value) was 75 µM.
